Measured values: patent US20240116985A1, “STAPLED PEPTIDES AND METHODS THEREOF” (priority 2020, published 2024)

Molecular target: T1, full-length beta-Catenin (Uniprot ID P35222) (Homo sapiens, UniProt P35222)
T1 construct: 10 nM full-length beta-Catenin (Uniprot ID P35222)
T1 sequence (P35222 1-781): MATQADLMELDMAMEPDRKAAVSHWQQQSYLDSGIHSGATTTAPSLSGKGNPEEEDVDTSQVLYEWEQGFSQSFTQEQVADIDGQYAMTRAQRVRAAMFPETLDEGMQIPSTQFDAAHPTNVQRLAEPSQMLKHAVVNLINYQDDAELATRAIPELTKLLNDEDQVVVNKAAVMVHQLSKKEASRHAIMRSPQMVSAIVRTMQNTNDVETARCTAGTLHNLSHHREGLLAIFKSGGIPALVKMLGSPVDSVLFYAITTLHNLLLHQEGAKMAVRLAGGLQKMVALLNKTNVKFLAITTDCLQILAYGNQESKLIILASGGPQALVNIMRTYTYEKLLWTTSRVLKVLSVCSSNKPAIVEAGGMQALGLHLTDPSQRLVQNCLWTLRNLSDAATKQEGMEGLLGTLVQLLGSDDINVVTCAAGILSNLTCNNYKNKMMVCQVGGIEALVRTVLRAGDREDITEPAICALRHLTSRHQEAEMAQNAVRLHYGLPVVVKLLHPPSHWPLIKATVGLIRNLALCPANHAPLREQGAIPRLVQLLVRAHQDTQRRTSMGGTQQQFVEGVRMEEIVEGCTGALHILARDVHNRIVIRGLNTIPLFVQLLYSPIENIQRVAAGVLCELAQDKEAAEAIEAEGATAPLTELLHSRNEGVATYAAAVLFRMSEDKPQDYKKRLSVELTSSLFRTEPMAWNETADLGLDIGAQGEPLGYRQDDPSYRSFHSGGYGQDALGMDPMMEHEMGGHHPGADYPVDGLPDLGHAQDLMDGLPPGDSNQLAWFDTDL
Assay: Fluorescence polarization IC50 (beta-catenin / 5FAM-TCF4 10-53 competition)
Type: binding
Conditions: fluorescence polarization; read-out: beta-Catenin FP IC50

IC50 [nM] | Structure (SMILES)
1330 | CC(=O)N1CCC[C@]12CC=CCCCC1(CCCC=CCCCOC(=O)N3CC[C@@](C(=O)N[C@@H](Cc4ccsc4)C(=O)N[C@@H](Cc4csc5ccccc45)C(=O)N[C@@H](CCC(N)=O)C(N)=O)(C3)NC(=O)[C@H](CC(C)C)NC(=O)[C@H](Cc3ccccc3)NC(=O)[C@H](C)NC(=O)[C@H](C)NC(=O)[C@H](CCC(=O)S)NC(=O)[C@H](CC(=O)O)NC1=O)NC(=O)[C@H](CC(C)(C)C)NC(=O)[C@H](CC(=O)O)NC2=O (stereo partly drawn) [I-1948, Ac-PL3-Asp-Npg-B5-Asp-GluSH-Ala-Ala-Phe-Leu-PyrS2-3Thi-BztA-Gln-NH2]
1520 | CC(=O)N1CCC[C@]12CC=CCCCC1(CCCC=CCCCOC(=O)N3CC[C@@](C(=O)N[C@@H](Cc4ccsc4)C(=O)N[C@@H](Cc4c[nH]c5ccccc45)C(=O)N[C@@H](CCC(N)=O)C(N)=O)(C3)NC(=O)[C@H](CC(N)=O)NC(=O)[C@H](Cc3ccccc3)NC(=O)[C@H](C)NC(=O)[C@H](C)NC(=O)[C@H]([C@@H](C)O)NC(=O)[C@H](CC(N)=O)NC1=O)NC(=O)[C@H](CC(C)(C)C)NC(=O)[C@H](CC(=O)O)NC2=O (stereo partly drawn) [I-1877, Ac-PL3-Asp-Npg-B5-Asn-Thr-Ala-Ala-Phe-Asn-PyrS2-3Thi-Trp-Gln-NH2]
24 | CC(=O)N1CCC[C@]12CC=CCCCC1(CCCC=CCCCOC(=O)N3CC[C@@](C(=O)N[C@@H](Cc4ccsc4)C(=O)N[C@@H](Cc4csc5ccccc45)C(=O)N[C@@H](CCC(N)=O)C(N)=O)(C3)NC(=O)[C@H](CC(C)C)NC(=O)[C@H](Cc3ccccc3)NC(=O)[C@H](C)NC(=O)[C@H](C)NC(=O)[C@H](CCN(CC(=O)O)CC(=O)O)NC(=O)[C@H](CC(=O)O)NC1=O)NC(=O)[C@H](CC(C)(C)C)NC(=O)[C@H](CC(=O)O)NC2=O (stereo partly drawn) [I-1836, Ac-PL3-Asp-Npg-B5-Asp-[CH2CO2H]GAbu-Ala-Ala-Phe-Leu-PyrS2-3Thi-BztA-Gln-NH2]
181 | CC(=O)N1CCC[C@]12CC=CCCCC1(CCCC=CCCOC(=O)N3CC[C@@](C(=O)N[C@@H](Cc4ccsc4)C(=O)N[C@@H](Cc4csc5ccccc45)C(=O)N[C@@H](CCC(N)=O)C(N)=O)(C3)NC(=O)[C@H](CC(N)=O)NC(=O)[C@H](Cc3ccccc3)NC(=O)[C@H](C)NC(=O)[C@H](C)NC(=O)[C@H](CC(=O)O)NC(=O)[C@H](CC(=O)O)NC1=O)NC(=O)[C@H](CC(C)(C)C)NC(=O)[C@H](CC(=O)O)NC2=O (stereo partly drawn) [I-1812, Ac-PL3-Asp-Npg-B5-Asp-Asp-Ala-Ala-Phe-Asn-PyrS1-3Thi-BztA-Gln-NH2]
5 | CC(=O)N1CCC[C@]12CC=CCCCC1(CCCC=CCCCOC(=O)N3CC[C@@](C(=O)N[C@@H](Cc4ccsc4)C(=O)N[C@@H](Cc4csc5ccccc45)C(=O)N[C@@H](C)C(N)=O)(C3)NC(=O)[C@H](C(C)C)NC(=O)[C@H](Cc3ccccc3)NC(=O)[C@H](C)NC(=O)[C@H](CCC(N)=O)NC(=O)[C@H](Cc3cccc(C(=O)O)c3)NC(=O)[C@H](CC(=O)O)NC1=O)NC(=O)[C@H](CC(C)(C)C)NC(=O)[C@H](CC(=O)O)NC2=O (stereo partly drawn) [I-2054, Ac-PL3-Asp-Npg-B5-Asp-3COOHF-Gln-Ala-Phe-Val-PyrS2-3Thi-BztA-Ala-NH2]
18 | CC(=O)N1CCC[C@]12CC=CCCCC1(CCCC=CCCCOC(=O)N3CC[C@@](C(=O)N[C@@H](Cc4ccccc4Cl)C(=O)N[C@@H](Cc4csc5ccccc45)C(=O)N[C@@H](CCC(N)=O)C(N)=O)(C3)NC(=O)[C@H]([C@@H](C)O)NC(=O)[C@H](Cc3ccccc3)NC(=O)[C@H](C)NC(=O)[C@H](C)NC(=O)[C@H](CN(CC(=O)O)CC(F)(F)F)NC(=O)[C@H](CC(=O)O)NC1=O)NC(=O)[C@H](CC(C)(C)C)NC(=O)[C@H](CC(=O)O)NC2=O (stereo partly drawn) [I-1463, Ac-PL3-Asp-Npg-B5-Asp-TfeGA-Ala-Ala-Phe-Thr-PyrS2-2C1F-BztA-Gln-NH2]
28 | CC(=O)N1CCC[C@]12CC=CCCCC1(CCCC=CCCCOC(=O)N3CC[C@@](C(=O)N[C@@H](Cc4ccsc4)C(=O)N[C@@H](Cc4csc5ccccc45)C(=O)N[C@@H](CCC(N)=O)C(N)=O)(C3)NC(=O)[C@H](CC(C)C)NC(=O)[C@H](Cc3ccccc3)NC(=O)[C@H](C)NC(=O)[C@H](C)NC(=O)[C@H](Cc3c[nH]cn3)NC(=O)[C@H](CC(=O)O)NC1=O)NC(=O)[C@H](CC(C)(C)C)NC(=O)[C@H](CC(=O)O)NC2=O (stereo partly drawn) [I-1795, Ac-PL3-Asp-Npg-B5-Asp-His-Ala-Ala-Phe-Leu-PyrS2-3Thi-BztA-Gln-NH2]
7180 | CC(=O)N1CCC[C@]12CC=CCCCC1(CCCC=CCCCOC(=O)N3CC[C@@](C(=O)N[C@@H](Cc4ccsc4)C(=O)N[C@@H](Cc4csc5ccccc45)C(=O)N[C@@H](CCC(N)=O)C(N)=O)(C3)NC(=O)[C@H](CC(N)=O)NC(=O)[C@H](Cc3ccccc3)NC(=O)[C@H](C)NC(=O)[C@H](C)NC(=O)[C@H]([C@@H](C)O)NC(=O)[C@H]([C@@H](C)O)NC1=O)NC(=O)[C@H](CC(C)(C)C)NC(=O)[C@H](CC(=O)O)NC2=O (stereo partly drawn) [I-2149, Ac-PL3-Asp-Npg-B5-Thr-Thr-Ala-Ala-Phe-Asn-PyrS2-3Thi-BztA-Gln-NH2]

Second part, the compound before the results:

Structure (SMILES) | IC50 [nM]
CC(=O)N1CCC[C@]12CC=CCCCC1(CCCC=CCCCOC(=O)N3CC[C@@](C(=O)N[C@@H](Cc4ccccc4)C(=O)N[C@@H](Cc4csc5ccccc45)C(=O)N[C@@H](CCC(N)=O)C(N)=O)(C3)NC(=O)[C@H](CC(C)C)NC(=O)[C@H](Cc3ccccc3)NC(=O)[C@H](C)NC(=O)[C@H](CCO)NC(=O)[C@H](CCC(N)=O)NC(=O)[C@H](CC(=O)O)NC1=O)NC(=O)[C@H](CC1CCCCC1)NC(=O)[C@H](CC(N)=O)NC2=O (stereo partly drawn) [I-2355, Ac-PL3-Asn-Cha-B5-Asp-Gln-Hse-Ala-Phe-Leu-PyrS2-Phe-BztA-Gln-NH2] | 417
CC(=O)N1CCC[C@]12CC=CCCCC1(CCCC=CCCCOC(=O)N3CC[C@@](C(=O)N[C@@H](Cc4ccsc4)C(=O)N[C@@H](Cc4csc5ccccc45)C(=O)N[C@@H](Cc4c[nH]c5ccccc45)C(N)=O)(C3)NC(=O)[C@H](CC(N)=O)NC(=O)[C@H](Cc3ccccc3)NC(=O)[C@H](C)NC(=O)C(C)(C)NC(=O)[C@H]([C@@H](C)O)NC(=O)[C@H](CC(N)=O)NC1=O)NC(=O)[C@H](CC(C)(C)C)NC(=O)[C@H](CC(=O)O)NC2=O (stereo partly drawn) [I-2481, Ac-PL3-Asp-Npg-B5-Asn-Thr-Aib-Ala-Phe-Asn-PyrS2-3Thi-BztA-Trp-NH2] | 754
CC(=O)N1CCC[C@]12CC=CCCCC1(CCCC=CCCCOC(=O)N3CCC(C(=O)N[C@@H](Cc4ccccc4C(F)(F)F)C(=O)N[C@@H](Cc4csc5ccccc45)C(=O)N[C@@H](C)C(N)=O)(CC3)NC(=O)[C@H](CC(C)C)NC(=O)[C@H](Cc3ccccc3)NC(=O)[C@H](C)NC(=O)[C@H](CCC(N)=O)NC(=O)[C@H](Cc3cccc(C(=O)O)c3)NC(=O)[C@H](CC(=O)O)NC1=O)NC(=O)[C@H](CC(C)(C)C)NC(=O)[C@H](CC(=O)O)NC2=O (stereo partly drawn) [I-2586, Ac-PL3-Asp-Npg-B5-Asp-3COOHF-Gln-Ala-Phe-Leu-SPip2-2F3MeF-BztA-Ala-NH2] | 345
CC(C)C[C@@H]1NC(=O)[C@H](Cc2ccccc2)NC(=O)[C@H](C)NC(=O)[C@H](C)NC(=O)[C@H](CN(CC(=O)O)CC(F)(F)F)NC(=O)[C@H](CC(=O)O)NC(=O)C2(CCCCCCCCOC(=O)N3CC[C@@](C(=O)N[C@@H](Cc4ccsc4)C(=O)N[C@@H](Cc4csc5ccccc45)C(=O)N[C@@H](CCC(N)=O)C(N)=O)(C3)NC1=O)CCCCCCOc1cccc(c1)CC(=O)N[C@@H](CC(=O)O)C(=O)N[C@@H](CC(C)(C)C)C(=O)N2 (stereo partly drawn) [I-2404, PAc3OAllyl-Asp-Npg-B5-Asp-TfeGA-Ala-Ala-Phe-Leu-PyrS2-3Thi-BztA-Gln-NH2] | 781
CC(=O)N1CCC[C@]12CC=CCCCC1(CCCC=CCCOC(=O)N3CC[C@@](C(=O)N[C@@H](Cc4ccccc4Cl)C(=O)N[C@@H](Cc4csc5ccccc45)C(=O)N[C@@H](C(N)=O)[C@H](C)O)(C3)NC(=O)[C@H](CC(N)=O)NC(=O)[C@H](Cc3ccccc3)NC(=O)[C@H](C)NC(=O)[C@H](C)NC(=O)[C@H](CC(=O)O)NC(=O)[C@H](CC(=O)O)NC1=O)NC(=O)[C@H](CC(C)(C)C)NC(=O)[C@H](CC(=O)O)NC2=O (stereo partly drawn) [I-1256, Ac-PL3-Asp-Npg-B5-Asp-Asp-Ala-Ala-Phe-Asn-PyrS1-2C1F-BztA-dThr-NH2] | 1470
CC(=O)N1CCC[C@]12CC=CCCCC1(CCCC=CCCCOC(=O)N3CC[C@@](C(=O)N[C@@H](Cc4ccccc4)C(=O)N[C@@H](Cc4csc5ccccc45)C(=O)N[C@@H](CCC(N)=O)C(N)=O)(C3)NC(=O)[C@H](CCCCNC(C)C)NC(=O)[C@H](Cc3ccccc3)NC(=O)[C@H](C)NC(=O)[C@H](CCCCNC(C)C)NC(=O)[C@H](CCC(N)=O)NC(=O)[C@H](CC(=O)O)NC1=O)NC(=O)[C@H](CC(C)(C)C)NC(=O)[C@H](CC(N)=O)NC2=O (stereo partly drawn) [I-1653, Ac-PL3-Asn-Npg-B5-Asp-Gln-iPrLys-Ala-Phe-iPrLys-PyrS2-Phe-BztA-Gln-NH2] | 903
CCCCCCCC(=O)N1CCC[C@]12CC=CCCCC1(CCCC=CCCCCCC[C@@](C)(C(=O)N[C@@H](Cc3ccccc3Cl)C(=O)N[C@@H](Cc3csc4ccccc34)C(=O)N[C@@H](CCC(N)=O)C(N)=O)NC(=O)[C@H]([C@@H](C)O)NC(=O)[C@H](Cc3ccccc3)NC(=O)[C@H](C)NC(=O)[C@H](C)NC(=O)[C@H](CC(=O)O)NC(=O)[C@H](CC(=O)O)NC1=O)NC(=O)[C@H](CC(C)(C)C)NC(=O)[C@H](CC(=O)O)NC2=O (stereo partly drawn) [I-1254, Oct-PL3-Asp-Npg-B5-Asp-Asp-Ala-Ala-Phe-Thr-S8-2C1F-BztA-Gln-NH2] | 530
